Patent US10212936B2, “Molecules having pesticidal utility, and intermediates, compositions, and processes, related thereto” (priority 2014, dated 2019)

Tests used:
Type in all cases: in vivo
[1] = tested on: Beet Armyworm (Spodoptera exigua, LAPHEG); experiment: Bioassay on Beet Armyworm (BAW), 128-well diet tray assay; conditions: 168 h, 50 μg/cm^2 on artificial diet, second instar larvae, five to seven days, 25° C., read-out: BAW % Control (or Mortality) rating
Experimental: (§1) Example A: Bioassays on Beet Armyworm (Spodoptera exigua, LAPHEG) (“BAW”), Corn Earworm (Helicoverpa zea, HELIZE) (“CEW”), and Cabbage Looper (Trichoplusia ni, TRIPNI) (“CL”)
(§2) Certain molecules disclosed in this document were tested against BAW, CEW, and CL using procedures described in the following examples. In the reporting of the results, the “BAW, CEW, & CL Rating Table” was used (See Table Section).
Bioassays on BAW were conducted using a 128-well diet tray assay. one to five second instar BAW larvae were placed in each well (3 mL) of the diet tray that had been previously filled with 1 mL of artificial diet to which 50 μg/cm^2 of the test molecule (dissolved in 50 μL of 90:10 acetone-water mixture) had been applied (to each of eight wells) and then allowed to dry. Trays were covered with a clear self-adhesive cover and held at 25° C., 14:10 light-dark for five to seven days. Percent mortality was recorded for the larvae in each well; activity in the eight wells was then averaged. The results are indicated in the table entitled “Table ABC: Biological Results” (See Table Section).

[2] = tested on: Cabbage Looper (Trichoplusia ni, TRIPNI); experiment: Bioassay on Cabbage Looper (CL), 128-well diet tray assay; conditions: 168 h, 50 μg/cm^2 on artificial diet, second instar larvae, five to seven days, 25° C., read-out: CL % Control (or Mortality) rating
Experimental: as §1, §2
Bioassays on CL were conducted using a 128-well diet tray assay. one to five second instar CL larvae were placed in each well (3 mL) of the diet tray that had been previously filled with 1 mL of artificial diet to which 50 μg/cm^2 of the test molecule (dissolved in 50 μL of 90:10 acetone-water mixture) had been applied (to each of eight wells) and then allowed to dry. Trays were covered with a clear self-adhesive cover and held at 25° C., 14:10 light-dark for five to seven days. Percent mortality was recorded for the larvae in each well; activity in the eight wells was then averaged. The results are indicated in the table entitled “Table ABC: Biological Results” (See Table Section).

[3] = tested on: Yellow Fever Mosquito (Aedes aegypti, AEDSAE); experiment: Bioassay on Yellow Fever Mosquito (YFM) larvae, 96-well plate; conditions: about 1 day-old larvae, 4000 ppm DMSO master plate diluted, graded after 3 days
Experimental: Example C: Bioassays on Yellow Fever Mosquito (Aedes aegypti, AEDSAE) (“YFM”)
Certain molecules disclosed in this document were tested against YFM using procedures described in the following paragraph. In the reporting of the results, the “YFM Rating Table” was used (See Table Section).
Master plates containing 400 μg of a molecule dissolved in 100 μL of dimethyl sulfoxide (DMSO) (equivalent to a 4000 ppm solution) are used. A master plate of assembled molecules contains 15 μL per well. To this plate, 135 μL of a 90:10 water:acetone mixture is added to each well. A robot (Biomek® NXP Laboratory Automation Workstation) is programmed to dispense 15 μL aspirations from the master plate into an empty 96-well shallow plate (“daughter” plate). There are 6 reps (“daughter” plates) created per master. The created daughter plates are then immediately infested with YFM larvae.
The day before plates are to be treated, mosquito eggs are placed in Millipore water containing liver powder to begin hatching (4 g. into 400 mL). After the daughter plates are created using the robot, they are infested with 220 μL of the liver powder/larval mosquito mixture (about 1 day-old larvae). After plates are infested with mosquito larvae, a non-evaporative lid is used to cover the plate to reduce drying. Plates are held at room temperature for 3 days prior to grading. After 3 days, each well is observed and scored based on mortality. The results are indicated in the table entitled “Table ABC: Biological Results” (See Table Section).

SMILES | mortality at 50 µg/cm2 [1] [%] | mortality at 50 µg/cm2 [2] [%] | YFM % Control (or Mortality) rating [3]
CCOC(=O)c1c(C)csc1NC(=O)Nc1ccc(-c2ncn(-c3ccc(OC(F)(F)F)cc3)n2)cc1 [F1, ethyl 4-methyl-2-(3-(4-(1-(4-(trifluoromethoxy)phenyl)-1H-1,2,4-triazol-3-yl)phenyl)ureido)thiophene-3-carboxylate] | 0 | 0 | D (No activity noticed in this bioassay)
CCOC(=O)c1cnn(-c2ccc(Cl)cc2C)c1NC(=O)Nc1ccc(-c2ncn(-c3ccc(OC(F)(F)F)cc3)n2)cc1 [F2, Ethyl 1-(4-chloro-2-methylphenyl)-5-(3-(4-(1-(4-(trifluoromethoxy)phenyl)-1H-1,2,4-triazol-3-yl)phenyl)ureido)-1H-pyrazole-4-carboxylate] | 0 | 0 | D (No activity noticed in this bioassay)
CC(C)CC(C)c1sccc1NC(=O)Nc1ccc(-c2ncn(-c3ccc(OC(F)(F)F)cc3)n2)cc1 (stereo not drawn) [F8, 1-(2-(4-Methylpentan-2-yl)thiophen-3-yl)-3-(4-(1-(4-(trifluoromethoxy)phenyl)-1H-1,2,4-triazol-3-yl)phenyl)urea] | 0 | 50 to 100 | D (No activity noticed in this bioassay)
O=C(Nc1ccc(-c2ncn(-c3ccc(OC(F)(F)F)cc3)n2)cc1)Nc1ccnn1-c1ccccc1 [F10, 1-(1-Phenyl-1H-pyrazol-5-yl)-3-(4-(1-(4-(trifluoromethoxy)phenyl)-1H-1,2,4-triazol-3-yl)phenyl)urea] | 50 to 100 | 50 to 100 | D (No activity noticed in this bioassay)
O=C(Nc1ccc(-c2ncn(-c3ccc(OC(F)(F)F)cc3)n2)cc1)Nc1nccn1-c1cc(Cl)cc(Cl)c1 [F28, 1-(1-(3,5-Dichlorophenyl)-1H-imidazol-2-yl)-3-(4-(1-(4-(trifluoromethoxy)phenyl)-1H-1,2,4-triazol-3-yl)phenyl)urea] | 50 to 100 | 0 | –
O=C(Nc1ccc(-c2ncn(-c3ccc(OC(F)(F)F)cc3)n2)cc1)Nc1nccn1-c1cccnc1 [F32, 1-(1-(Pyridin-3-yl)-1H-imidazol-2-yl)-3-(4-(1-(4-(trifluoromethoxy)phenyl)-1H-1,2,4-triazol-3-yl)phenyl)urea] | 50 to 100 | 0 to 50 | –
COc1ccc(-c2ncsc2NC(=O)Nc2ccc(-c3ncn(-c4ccc(OC(F)(F)F)cc4)n3)cc2)c(C)c1 [F46, 1-(4-(4-Methoxy-2-methylphenyl)thiazol-5-yl)-3-(4-(1-(4-(trifluoromethoxy)phenyl)-1H-1,2,4-triazol-3-yl)phenyl)urea] | 50 to 100 | 50 to 100 | A (80-100)
Cc1ccc(C)c(-c2ncsc2NC(=O)Nc2ccc(-c3ncn(-c4ccc(OC(F)(F)F)cc4)n3)cc2)c1 [F47, 1-(4-(2,5-Dimethylphenyl)thiazol-5-yl)-3-(4-(1-(4-(trifluoromethoxy)phenyl)-1H-1,2,4-triazol-3-yl)phenyl)urea] | 50 to 100 | 50 to 100 | A (80-100)
O=C(Nc1ccc(-c2ncn(-c3ccc(OC(F)(F)F)cc3)n2)cc1)Nc1scnc1-c1c(Cl)cccc1Cl [F48, 1-(4-(2,6-Dichlorophenyl)thiazol-5-yl)-3-(4-(1-(4-(trifluoromethoxy)phenyl)-1H-1,2,4-triazol-3-yl)phenyl)urea] | – | – | A (80-100)
CCc1ccccc1-c1ncsc1NC(=O)Nc1ccc(-c2ncn(-c3ccc(OC(F)(F)F)cc3)n2)cc1 [F49, 1-(4-(2-ethylphenyl)thiazol-5-yl)-3-(4-(1-(4-(trifluoromethoxy)phenyl)-1H-1,2,4-triazol-3-yl)phenyl)urea] | 50 to 100 | 50 to 100 | –
O=C(NCCc1ccc(-c2ncn(-c3ccc(OC(F)(F)F)cc3)n2)cc1)Nc1nccs1 [F50, 1-(thiazol-2-yl)-3-(4-(1-(4-(trifluoromethoxy)phenyl)-1H-1,2,4-triazol-3-yl)phenethyl)urea] | 0 | 0 | D (No activity noticed in this bioassay)
O=C(NCCc1ccc(-c2ncn(-c3ccc(OC(F)(F)F)cc3)n2)cc1)Nc1ccnn1-c1ccccc1 [F51, 1-(1-phenyl-1H-pyrazol-5-yl)-3-(4-(1-(4-(trifluoromethoxy)phenyl)-1H-1,2,4-triazol-3-yl)phenethyl)urea] | 0 | 0 | –
Cc1cc(C)c(C2=C(NC(=O)NCCc3ccc(-c4ncn(-c5ccc(OC(F)(F)F)cc5)n4)cc3)OCC2=O)c(C)c1 [F53, 1-(3-mesityl-4-oxo-4,5-dihydrofuran-2-yl)-3-(4-(1-(4-(trifluoromethoxy)phenyl)-1H-1,2,4-triazol-3-yl)phenethyl)urea] | 0 to 50 | 50 to 100 | A (80-100)
O=C(NCCc1ccc(-c2ncn(-c3ccc(OC(F)(F)F)cc3)n2)cc1)NC1=C(c2c(Cl)cccc2Cl)C(=O)CO1 [F54, 1-(3-(2,6-Dichlorophenyl)-4-oxo-4,5-dihydrofuran-2-yl)-3-(4-(1-(4-(trifluoromethoxy)phenyl)-1H-1,2,4-triazol-3-yl)phenethyl)urea] | 0 | 0 | A (80-100)
Cc1cccc(C)c1C1=C(NC(=O)NCCc2ccc(-c3ncn(-c4ccc(OC(F)(F)F)cc4)n3)cc2)OCC1=O [F55, 1-(3-(2,6-Dimethylphenyl)-4-oxo-4,5-dihydrofuran-2-yl)-3-(4-(1-(4-(trifluoromethoxy)phenyl)-1H-1,2,4-triazol-3-yl)phenethyl)urea] | 50 to 100 | 0 | A (80-100)
Cc1ccc(C)c(C2=C(NC(=O)NCCc3ccc(-c4ncn(-c5ccc(OC(F)(F)F)cc5)n4)cc3)OCC2=O)c1 [F56, 1-(3-(2,5-Dimethylphenyl)-4-oxo-4,5-dihydrofuran-2-yl)-3-(4-(1-(4-(trifluoromethoxy)phenyl)-1H-1,2,4-triazol-3-yl)phenethyl)urea] | 50 to 100 | 50 to 100 | A (80-100)
Cc1ccc(C)c(-c2c(NC(=O)NCCc3ccc(-c4ncn(-c5ccc(OC(F)(F)F)cc5)n4)cc3)on(C)c2=O)c1 [F57, 1-(4-(2,5-Dimethylphenyl)-2-methyl-3-oxo-2,3-dihydroisoxazol-5-yl)-3-(4-(1-(4-(trifluoromethoxy)phenyl)-1H-1,2,4-triazol-3-yl)phenethyl)urea] | 50 to 100 | 50 to 100 | A (80-100)
CC(C)c1ccccc1-c1c(NC(=O)NCCc2ccc(-c3ncn(-c4ccc(OC(F)(F)F)cc4)n3)cc2)on(C)c1=O [F58, 1-(4-(2-Isopropylphenyl)-2-methyl-3-oxo-2,3-dihydroisoxazol-5-yl)-3-(4-(1-(4-(trifluoromethoxy)phenyl)-1H-1,2,4-triazol-3-yl)phenethyl)urea] | 50 to 100 | 50 to 100 | A (80-100)
Cc1cc(C)c(-c2c(NC(=O)NCCc3ccc(-c4ncn(-c5ccc(OC(F)(F)F)cc5)n4)cc3)on(C)c2=O)c(C)c1 [F59, 1-(4-Mesityl-2-methyl-3-oxo-2,3-dihydroisoxazol-5-yl)-3-(4-(1-(4-(trifluoromethoxy)phenyl)-1H-1,2,4-triazol-3-yl)phenethyl)urea] | 50 to 100 | 50 to 100 | A (80-100)
